Data as given in patent US20120157477A1, “REVERSAL OF L-DOPA-INDUCED DYSKINESIA BY NEURONAL NICOTINIC RECEPTOR LIGANDS” (TARGACEPT, INC., priority 2009, published 2012).
“Also recorded” adds a separate entry of the source.

Columns and labels:
rats = assay: Safety studies in rats; type: in vivo, rat
rodents = assay: Toxicological studies, rodents; type: in vivo
Parkinsonian rats = assay: Limb use asymmetry (cylinder) test of motor function in Parkinsonian rats; type: in vivo, rat
Description: Because drugs that reduce AIMs may worsen Parkinsonism, the effect of Compound A (PD1) was also tested on motor function in Parkinsonian rats (see FIG. 3) using the limb use asymmetry or cylinder test. The cylinder test was used as an index of behavioral function after unilateral nigrostriatal damage, with explorative activity analyzed as previously described. Animals were placed in a transparent cylinder (20 cm diameter×30 cm height) or in a transparent cage and evaluated over a 5 min period. A mirror was placed behind the cylinder/cage to allow the raters to view forelimb movements when the rat was turned away from the rater. Wall exploration was expressed in terms of the percentage of use of the impaired forelimb (contralateral to the lesion) compared to the total number of limb use movements. Two raters, one blinded to the treatment status of the rats, performed the ratings. Correlation analyses yielded a high inter-rater reliability (R=0.99). […] The rat is placed in a transparent cylinder, which results in vertical exploration and the percentage of contact of the unimpaired and impaired forelimb against the cylinder evaluated (Cenci, M. A. and M. Lundblad, “Post-Versus Presynaptic Plasticity In L-Dopa-lnduced Dyskinesia,”. J Neurochem, 99: 381-392 (2006); Tillerson, J. L. et al., “Forced Limb-Use Effects On The Behavioral And Neurochemical Effects Of 6-Hydroxydopamine,” J Neurosci 21, 4427-35 (2001); and Meredith, G. E. & U. J. Kang, “Behavioral Models Of Parkinson's Disease In Rodents: A New Look At An Old Problem,” Mov Disord, 21: 1595-606 (2006).

dogs = assay: Toxicological studies, dogs; type: in vivo
[1] = tested on: L-dopa-treated unilateral 6-hydroxydopamine-lesioned rats; assay: L-dopa-induced AIMs (dyskinesia) in unilateral 6-OHDA-lesioned rats; type: in vivo, rat
Description: The subtype selective NNR agonist Compound A, stimulates […] and to a lesser extent α6* NNRs. […] Experiments were performed using male Sprague-Dawley rats that were unilaterally lesioned with 6-OHDA (Sigma Chemical Co., St. Louis, Mo.) as previously described (Cenci et al., 1998; Cenci et al., 2002). 6-OHDA was dissolved in 0.02% ascorbic acid/saline at a concentration of 3 μg/μl. Compound A was systemically infused via osmotic minipumps (Alzet model 2006; Durect Corporation, Cupertino, Calif., USA), which delivered drug at a rate of 3.6 μl/day for 6 wk. […] Pumps were pre-filled with either sterilized water or Compound A base in water (pH 7.0) to provide the required doses (0.03, 0.1, 0.3 mg/kg/d). The minipumps were subcutaneously implanted along the dorsal aspect of the neck between the shoulder blades, according to the manufacturer's instruction, under isofluorane anesthesia. After implantation, rats were administered buprenorphine (0.02 mg/kg sc) for post-operative pain. Two weeks after initiation of drug treatment, the rats were administered single daily subcutaneous injections of 6 to 8 mg/kg L-dopa methyl ester plus 15 mg/kg benserazide. Two μl aliquots were stereotaxically injected at each of two sites for a total of 8 to 12 μg into the right ascending dopamine fiber bundle. Infusion of 6-OHDA into the target area was over a 2-min period, with the cannula maintained at the site of injection for a further 2 min. Two to three weeks after lesioning, rats were tested for drug-induced rotational behavior in an automated behavioral measurement apparatus (ROTOMAX, AccuScan Instruments Inc. Columbus, Ohio, USA). Each rat was placed in a cylindrical glass chamber for 30 min for acclimatization, after which 4.0 mg/kg amphetamine (Sigma Chemical Co., St. Louis, Mo.) was administered intraperitoneally (ip). Amphetamine-induced rotational behavior was monitored for 90 min, with rats making at least 200 ipsilateral turns/90 min used for further study.
L-dopa-induced AIMs were determined as indicated. See FIG. 1 for experiment dosing and testing regimen. Behavioral testing was done in the morning starting between 9 and 10 AM. Three different AIMs subtypes were measured including (1) axial dystonia, contralateral twisted posturing of the neck and upper body; (2) abnormal orolingual movements, stereotyped jaw movements and contralateral tongue protrusion; and (3) abnormal forelimb movements, repetitive rhythmic jerks or dystonic posturing of the contralateral forelimb and/or grabbing movements of the contralateral paw. See, for example, Carta M, Lindgren HS, Lundblad M, Stancampiano R, Fadda F, Cenci M A (2006), Role of Striatal L-DOPA in the Production of Dyskinesia in 6-hydroxydopamine Lesioned Rats. J Neurochem 96:1718-172; Cenci M A, Lee C S, Bjorklund A (1998) L-DOPA-induced dyskinesia in the rat is associated with striatal overexpression of prodynorphin- and glutamic acid decarboxylase mRNA; Eur J Neurosci 10:2694-2706; Cenci M A, Whishaw I Q, Schallert T (2002) Animal models of neurological deficits: how relevant is the rat? Nat Rev Neurosci 3:574-579; Bordia, T., Campos, C., Huang, L. Z. & Quik, M., “Continuous And Intermittent Nicotine Treatment Reduces L-3,4-Dihydroxyphenylalanine (L-Dopa)-Induced Dyskinesias In A Rat Model Of Parkinson's Disease,” J Pharmacol Exp Ther 327: 239-47 (2008)). Rats were scored on a scale from 0 to 4 for each of these three AIM subtypes as follows: 1=occasional; 2=frequent; 3=continuous but interrupted by sensory distraction; and 4=continuous, severe, not interrupted by sensory distraction. Animals were evaluated for AIMs for an initial 20 min baseline period, as well as for 3 h following L-dopa injection by a blinded rater. Assessment of the different subtypes of AIMs was done over 20 min sessions, thus yielding a total of 9 sessions of testing per animals. The maximum possible score for each animal was thus 108 (maximum score per session=12; number of sessions over 3 h=9). […]

primates = assay: Toxicological studies, primates; type: in vivo
Parkinsonian rodents = settings: cited from earlier work
[2] = tested on: Parkinsonian nonhuman primates; settings: cited from earlier work
[3] = 0.1 or 0.3 mg/kg/d via subcutaneous minipump

## C(=C\[C@H]1CCNC1)/c1cncnc1 [Compound A, (R)-5-((E)-2-pyrrolidin-3-ylvinyl)pyrimidine]
rats; acute free base oral doses up to 30 mg/kg
  detrimental effects: not associated with any significant detrimental effects
rats; rats
  behavioral sensitization: no behavioral sensitization
  locomotor activity: did not increase locomotor activity
rodents
  incidence of peripheral side effects: low incidence of peripheral side effects
Parkinsonian rats; lesioned rats, either dose tested
  Parkinsonism / motor function, trend: small trend for improvement; also recorded: trend for improving Parkinsonism
Parkinsonian rats; off L-dopa, either dose tested, across the experiment
  baseline motor function: does not worsen baseline motor function
Parkinsonian rats; on L-dopa, either dose tested, across the experiment
  enhanced limb use with L-dopa treatment: nor does it worsen the enhanced limb use
Parkinsonian rats; two doses, Off or On L-dopa, several occasions
  parkinsonism, asymmetric forelimb or cylinder test (FIG. 3): do not worsen parkinsonism
dogs
  incidence of peripheral side effects: low incidence of peripheral side effects
[1]; 0.1 mg/kg/day, second and third assessments
  total AIMs: significant decline in total AIMs
[1]; 0.3 mg/kg/day, fourth assessment
  total AIMs: significant decline in total AIMs
[1]; 0.1 and 0.3 mg/kg/day, across multiple assessments, P<0.05 vs control (FIG. 2)
  L-dopa-induced AIMs, total or some subset (axial, oral and/or forelimb): reduce L-dopa-induced AIMs; also recorded: significant reduction
[1]; [3]
  reduction in oral versus axial AIMs: more pronounced reduction in oral than axial AIMs
  reduction of total L-dopa-induced AIMs: ~25%
[1]; first and fifth AIMs assessments
  total AIMs: trends for declines in total AIMs
[1]; minipump treatment in the AIMs study
  adverse effects (body weight, body temperature, grooming, urination, defecation, secretion): no detectable adverse effects
primates
  incidence of peripheral side effects: low incidence of peripheral side effects

## CN1CCCC1c1cccnc1 (centres unmarked) [nicotine]
Parkinsonian rodents; Parkinsonian rodents
  reduction of L-dopa-induced dyskinetic-like movements: ~50%
Parkinsonian rodents; rats, given continuously via osmotic minipump
  L-dopa-induced AIMs: most effectively reduced L-dopa-induced AIMs
[2]
  reduction of L-dopa-induced dyskinetic-like movements: ~50%
